In patent US9247742B2 (priority 2012, dated 2016):
Where two headings read alike, the source gives them in different places.

Key:
Magnaporthe oryzae [1] = assay type: in vivo; conditions: 1-day protective; for B % DC: component B alone; for A % DC: component A (777) alone
Magnaporthe oryzae [2] = assay type: in vivo; conditions: 1-day curative/protective; for B % DC: component B alone; for A % DC: component A (777) alone

CO/C=C(/C(=O)OC)c1ccccc1Oc1cc(Oc2ccccc2C#N)ncn1 [Azoxystrobin, methyl (αE)-2-[[6-(2-cyanophenoxy)-4-pyrimidinyl]oxy]-α-(methoxymethylene)benzeneacetate]
B % DC (Magnaporthe oryzae [1]; Rate B 0.025 ai ppm): 9%
B % DC (Magnaporthe oryzae [1]; Rate B 0.1 ai ppm): 19%
B % DC (Magnaporthe oryzae [1]; Rate B 0.4 ai ppm): 30%
B % DC (Magnaporthe oryzae [1]; Rate B 1.56 ai ppm): 0%

O=C(Nc1ccccc1-c1ccc(Cl)cc1)c1cccnc1Cl [Boscalid, 2-chloro-N-(4′-chloro[1,1′-biphenyl]-2-yl)-3-pyridinecarboxamide]
B % DC (Magnaporthe oryzae [2]; Rate B 400 ai/ppm): 69%

CCC1(C(=O)NC(C)c2ccc(Cl)cc2)C(C)C1(Cl)Cl (stereo not drawn) [Carpropamid, 2,2-dichloro-N-[1-(4-chlorophenyl)ethyl]-1-ethyl-3-methylcyclopropanecarboxamide]
B % DC (Magnaporthe oryzae [1]; Rate B 0.1 ai ppm): 2%
B % DC (Magnaporthe oryzae [1]; Rate B 0.4 ai ppm): 23%

C[C@H]1O[C@H](O[C@H]2[C@H](O)[C@@H](O)[C@@H](O)[C@H](O)[C@@H]2O)[C@@H](N)C[C@@H]1NC(=N)C(=O)O [Kasugamycin, 3-O-[2-amino-4-[(carboxylminomethyl)amino]-2,3,4,6-tetradeoxy-α-D-arabino-hexopyranosyl]-D-chiro-inositol]
B % DC (Magnaporthe oryzae [2]; Rate B 1.56 ai/ppm): 69%
B % DC (Magnaporthe oryzae [2]; Rate B 6.25 ai/ppm): 68%
B % DC (Magnaporthe oryzae [2]; Rate B 25 ai/ppm): 74%

C=CCOC1=NS(=O)(=O)c2ccccc21 [Probenazole, 3-(2-propenyloxy)-1,2-benzisothiazole 1,1-dioxide]
B % DC (Magnaporthe oryzae [2]; Rate B 3.12 ai/ppm): 69%
B % DC (Magnaporthe oryzae [2]; Rate B 12.5 ai/ppm): 78%

Cc1cccc2sc3nncn3c12 [Tricyclazole, 5-methyl-1,2,4-triazolo[3,4-b]benzothiazole]
B % DC (Magnaporthe oryzae [1]; Rate B 0.025 ai ppm): 0%
B % DC (Magnaporthe oryzae [1]; Rate B 0.1 ai ppm): 0%
B % DC (Magnaporthe oryzae [1]; Rate B 0.4 ai ppm): 23%
B % DC (Magnaporthe oryzae [2]; Rate B 0.1 ai/ppm): 71%

COc1ccnc(C(=O)N[C@H]2COC(=O)[C@H](Cc3ccccc3)[C@@H](OC(=O)C(C)C)[C@H](C)OC2=O)c1OCOC(=O)C(C)C [compound 777]
A % DC (Magnaporthe oryzae [1]; Rate A 0.025 ai ppm): 0%
A % DC (Magnaporthe oryzae [1]; Rate A 0.1 ai ppm): 21%
A % DC (Magnaporthe oryzae [1]; Rate A 0.25 ai ppm): 0%
A % DC (Magnaporthe oryzae [1]; Rate A 0.4 ai ppm): 61%
A % DC (Magnaporthe oryzae [2]; Rate A 0.1 ai/ppm): 28%
A % DC (Magnaporthe oryzae [2]; Rate A 0.4 ai/ppm): 50%
A % DC (Magnaporthe oryzae [2]; Rate A 1.56 ai/ppm): 67%
A % DC (Magnaporthe oryzae [2]; Rate A 6.25 ai/ppm): 81%
